{"source": "PubChem BioAssay AID2060907", "about": "(Molecular Pharmacology Branch, DTP, NCI, 2025)", "system": "388556-164-R-J1-PDC complex spheroid viability", "assay": "Anticancer human tumor 388556-164-R-J1-PDC patient-derived colon adenocarcinoma cell line growth inhibition [RAS]", "details": "for viability, T/C: stronger effect = lower value", "source_text": "RAS pathway inhibitors in Combinations in Complex Spheroids\nA high-throughput screen of multi-cell type tumor spheroids was designed to identify active combinations of RAS pathway inhibitors and targeted small molecules. Complex spheroids include a stromal component modeled by human endothelial cells (HUVEC) and fibroblasts modeled by human mesenchymal stem cells (MSCs). The concentration ranges selected for each drug and investigational agent were based upon clinically achievable concentrations if the clinical Cmax of the agent was known.\nCompounds. The drugs and investigational agents: abemaciclib (NSC768073), cobimetinib (NSC768068), divarasib (GDC6063, NSC841802), docetaxel (NSC628503), GDC-1971 (RLY-1971, NSC841576), gemcitabine (NSC613327), inavolisib (NSC800729), ipatasertib (NSC767898), KB-0742 (NSC834161), MRTX-1133 (NSC836407), osimertinib (NSC779217), RMC-4630 (NSC839698), RMC-6236 (NSC851965), RMC-6291 (NSC852671), Ro-3306 (NSC812927), sapanisertib (NSC764658), SN-38 (NSC673596), staurosporine (NSC755774), SY5609 (NSC837396), and tovorafenib (DAY101, NSC766906), were obtained from the National Cancer Institute (NCI) Developmental Therapeutics Program Chemical Repository. The FDA-approved anticancer drug set is available from the NCI Developmental Therapeutics Program. […] The stock solutions were prepared in dimethyl sulfoxide (DMSO, Sigma-Aldrich, St. Louis, MO, cat. D2650) at 800-fold the tested concentration and stored at -70 degrees C prior to their use. All drugs and investigational agents were tested over a range starting from a high concentration at or near the clinical Cmax and decreasing in half-log increments. If the clinical Cmax for an agent had not been determined, the highest concentration tested was 10 microM.\nCell Culture. All cells were maintained in an incubator at 37 degrees C and 5% CO2 with 95% humidity. The PDC lines were cultured according to standard operating procedures established by the NCI PDMR. All PDCs were thawed and cultured in Matrigel-coated flasks prepared with a working solution of 1X Ham's F-12 nutrient mix, without supplementation (Invitrogen, Waltham, MA, cat. 11765054), 100 U/mL penicillin-streptomycin (Invitrogen, cat. 15140122), and 2.5% Matrigel (Corning Inc., Corning, NY, cat. 354248) for the first three passages. The 362531-283-R-J2-PDC and 782815-120-R-J1-PDC lines were cultured in 6C/Colon 1B media, which includes advanced DMEM/F-12 (Thermo Fisher Scientific, cat. 12634028), 10 mM HEPES (Thermo Fisher Scientific, cat. 15630080), 1X GlutaMAX supplement (Thermo Fisher Scientific, cat. 35050061), 0.1 mg/mL primocin (InvivoGen, San Diego, CA, cat. ant-pm-2), 10% defined fetal bovine serum, heat inactivated (HyClone Laboratories Inc., Logan, UT, cat. SH30070.03HI), 50% L-WRN conditioned media (ATCC, cat. CRL-3276), 1.25 mM N-Acetyl-L-cysteine (Sigma-Aldrich, cat. A9165), 10 mM nicotinamide (Sigma-Aldrich, cat. N0636), 1X B-27 supplement (Thermo Fisher Scientific, cat. 17504044), 1X N-2 supplement (Thermo Fisher Scientific, cat. 17502048), 50 ng/mL human EGF (Thermo Fisher Scientific, cat. PHG0311), and 10 microM Y-27632 dihydrochloride (Tocris Bioscience, cat. 1254). The K12877-001-R-J1-PDC line was cultured in 6I media, which includes all 6C/Colon 1B media plus 10 ng/mL human FGF-10 (PeproTech, cat. 100-26), 1 ng/mL human FGF-2 (PeproTech, cat. 100-18B), 1 µM prostaglandin E2 (Tocris Bioscience, cat. 2296), […] hydrocortisone (Sigma-Aldrich, cat. H4001), and […] bovine insulin (Sigma-Aldrich, cat. I6634). The K86415-001-R-J1-PDC line was cultured in 6D media, which includes all 6C/Colon 1B media components minus the L-WRN conditioned media. The 485176-168-R4-J1-PDC was cultured in PANC media, which includes all 6C/Colon 1B media plus 100 ng/mL human FGF-10 (PeproTech, cat. 100-26), 500 nM SB-431542 (Selleckchem, cat. S1067), and 10 nM gastrin (Tocris Bioscience, cat. 3006). […]", "key": {"[1]": {"details": "compound alone, run of 09/09/2024"}}, "note": "Where “and” joins values, the source holds several entries; their conditions need not be identical. Equal entries are not always repeated.", "data": [{"compound": "C#Cc1c(F)ccc2cc(O)cc(-c3ncc4c(N5CC6CCC(C5)N6)nc(OCC56CCCN5CC(F)C6)nc4c3F)c12", "note": "(stereo not drawn);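 further: spheroids exposed to compound for 7 days before readout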;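 on viability, T/C: 100% = DMSO vehicle control luminescence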", "values": [{"measurement": "viability, T/C", "setting": "compound 0.0316 µM", "result": "84.2% [middle of 8 runs]"}, {"measurement": "viability, T/C", "setting": "compound 0.1 µM", "result": "75.7% [middle of 8 runs]"}, {"measurement": "viability, T/C", "setting": "compound 0.316 µM", "result": "95.4% [middle of 8 runs]"}, {"measurement": "viability, T/C", "setting": "compound 1 µM", "result": "93.8% [middle of 8 runs]"}, {"measurement": "viability, T/C", "setting": "compound 3.16 µM", "result": "87.3% [middle of 7 runs]"}, {"measurement": "viability, T/C", "setting": "compound 10 µM", "result": "70.4% [middle of 8 runs]"}, {"measurement": "IC50", "setting": "[1]", "result": "> 10", "unit": "µM"}]}, {"compound": "C=CC(=O)N1CCN(c2nc(OCC3CCCN3C)nc3c(F)c(-c4nc(N)cc(C)c4C(F)(F)F)c(Cl)cc23)C(C)C1", "note": "(stereo not drawn)", "values": [{"measurement": "viability, T/C", "setting": "compound 0.00316 µM", "result": "100% [middle of 11 runs]"}, {"measurement": "viability, T/C", "setting": "compound 0.0316 µM", "result": "99.2% [middle of 11 runs]"}, {"measurement": "viability, T/C", "setting": "compound 0.1 µM", "result": "105% [middle of 11 runs]"}, {"measurement": "viability, T/C", "setting": "compound 0.316 µM", "result": "102% [middle of 11 runs]"}, {"measurement": "viability, T/C", "setting": "compound 1 µM", "result": "98% [middle of 11 runs]"}, {"measurement": "IC50", "setting": "[1]", "result": "> 1", "unit": "µM"}, {"measurement": "IC50", "setting": "curve of compound", "result": "> 1", "unit": "µM"}]}, {"compound": "C=CC(=O)Nc1cc(Nc2nccc(-c3cn(C)c4ccccc34)n2)c(OC)cc1N(C)CCN(C)C", "values": [{"measurement": "viability, T/C", "setting": "compound 0.01 µM", "result": "103% (2×) and 87.1% and 86.9%"}, {"measurement": "viability, T/C", "setting": "compound 0.0316 µM", "result": "98.9% [middle of 4 runs]"}, {"measurement": "viability, T/C", "setting": "compound 0.1 µM", "result": "88.7% [middle of 4 runs]"}, {"measurement": "viability, T/C", "setting": "compound 0.316 µM", "result": "78.6% [middle of 4 runs]"}, {"measurement": "viability, T/C", "setting": "compound 1 µM", "result": "64.3% [middle of 4 runs]"}, {"measurement": "IC50", "setting": "curve of compound", "result": "> 1", "unit": "µM"}]}, {"compound": "CC(=O)OC12COC1CC(O)C1(C)C(=O)C(O)C3=C(C)C(OC(=O)C(O)C(NC(=O)OC(C)(C)C)c4ccccc4)CC(O)(C(OC(=O)c4ccccc4)C21)C3(C)C", "note": "(stereo not drawn)", "values": [{"measurement": "viability, T/C", "setting": "compound 0.0316 µM", "result": "89.3% [middle of 4 runs]"}, {"measurement": "viability, T/C", "setting": "compound 0.1 µM", "result": "74.3% [middle of 4 runs]"}, {"measurement": "viability, T/C", "setting": "compound 0.316 µM", "result": "75% [middle of 4 runs]"}, {"measurement": "viability, T/C", "setting": "compound 1 µM", "result": "78.8% [middle of 4 runs]"}, {"measurement": "viability, T/C", "setting": "compound 3.16 µM", "result": "78.5% [middle of 4 runs]"}, {"measurement": "viability, T/C", "setting": "compound 10 µM", "result": "75.2% [middle of 4 runs]"}, {"measurement": "IC50", "setting": "curve of compound", "result": "> 10", "unit": "µM"}]}, {"compound": "CC(C)n1nc(-c2ccc3oc(N)nc3c2)c2c(N)ncnc21", "values": [{"measurement": "viability, T/C", "setting": "compound 0.000316 µM", "result": "104% and 82.3% and 101% (2×)"}, {"measurement": "viability, T/C", "setting": "compound 0.00316 µM", "result": "86.8% and 105% (2×) and 98.4%"}, {"measurement": "viability, T/C", "setting": "compound 0.01 µM", "result": "83% [middle of 4 runs]"}, {"measurement": "viability, T/C", "setting": "compound 0.0316 µM", "result": "59.4% [middle of 4 runs]"}, {"measurement": "viability, T/C", "setting": "compound 0.1 µM", "result": "40% (2×) and 49.2% and 51.2%"}]}, {"compound": "CC(Nc1ccc2c(c1)OCCn1cc(N3C(=O)OCC3C(F)F)nc1-2)C(N)=O", "note": "(stereo not drawn)", "values": [{"measurement": "viability, T/C", "setting": "compound 0.1 µM", "result": "87.7% [middle of 4 runs]"}, {"measurement": "viability, T/C", "setting": "compound 0.316 µM", "result": "88.6% [middle of 4 runs]"}, {"measurement": "viability, T/C", "setting": "compound 1 µM", "result": "80.3% [middle of 4 runs]"}, {"measurement": "viability, T/C", "setting": "compound 3.16 µM", "result": "74.9% [middle of 4 runs]"}, {"measurement": "viability, T/C", "setting": "compound 10 µM", "result": "67.4% [middle of 4 runs]"}, {"measurement": "IC50", "setting": "curve of compound", "result": "> 10", "unit": "µM"}]}, {"compound": "CC1(C)CCC(Nc2ncc(C(F)(F)F)c(-c3c[nH]c4c(P(C)(C)=O)c(C#N)ccc34)n2)CN1", "note": "(stereo not drawn)", "values": [{"measurement": "viability, T/C", "setting": "compound 0.000949 µM", "result": "89.6% and 97.1% and 84.3%"}, {"measurement": "viability, T/C", "setting": "compound 0.003 µM", "result": "93.9% and 97.5% and 113%"}, {"measurement": "viability, T/C", "setting": "compound 0.00949 µM", "result": "95.5% and 100% and 114%"}, {"measurement": "viability, T/C", "setting": "compound 0.03 µM", "result": "94.3% and 100% (2×)"}, {"measurement": "viability, T/C", "setting": "compound 0.0949 µM", "result": "88.2% and 94.4% and 107%"}, {"measurement": "viability, T/C", "setting": "compound 0.3 µM", "result": "87% and 84.8% and 87.1%"}, {"measurement": "IC50", "setting": "curve of compound", "result": "> 0.3", "unit": "µM"}]}, {"compound": "CC1(O)CCCC1n1c(=O)c(C(F)F)cc2cnc(NC3CCN(S(C)(=O)=O)CC3)nc21", "note": "(stereo not drawn)", "values": [{"measurement": "viability, T/C", "setting": "compound 0.0316 µM", "result": "92.6% and 106% and 83.1%"}, {"measurement": "viability, T/C", "setting": "compound 0.1 µM", "result": "100% and 93% and 103%"}, {"measurement": "viability, T/C", "setting": "compound 0.316 µM", "result": "107% and 99.9% and 99.4%"}, {"measurement": "viability, T/C", "setting": "compound 1 µM", "result": "102% and 97.4% and 98%"}, {"measurement": "viability, T/C", "setting": "compound 3.16 µM", "result": "111% and 105% (2×)"}, {"measurement": "viability, T/C", "setting": "compound 10 µM", "result": "75.2% and 57.1% and 77.8%"}, {"measurement": "IC50", "setting": "curve of compound", "result": "> 10", "unit": "µM"}]}, {"compound": "CCC(CC)c1cc(NC2CCC(N)C2)n2nccc2n1", "note": "(stereo not drawn)", "values": [{"measurement": "viability, T/C", "setting": "compound 0.0316 µM", "result": "100% [middle of 4 runs]"}, {"measurement": "viability, T/C", "setting": "compound 0.1 µM", "result": "96.7% [middle of 4 runs]"}, {"measurement": "viability, T/C", "setting": "compound 0.316 µM", "result": "106% (2×) and 109% and 107%"}, {"measurement": "viability, T/C", "setting": "compound 1 µM", "result": "108% [middle of 4 runs]"}, {"measurement": "viability, T/C", "setting": "compound 10 µM", "result": "32% [middle of 4 runs]"}, {"measurement": "IC50", "setting": "curve of compound", "result": "2.97 µM [middle of 4 runs]"}]}]}
